Test results: paper PMC7034070, “Synthesis, anti-inflammatory, cytotoxic, and COX-1/2 inhibitory activities of cyclic imides bearing 3-benzenesulfonamide, oxime, and β-phenylalanine scaffolds: a molecular docking study” (Journal of Enzyme Inhibition and Medicinal Chemistry, 2020)
Where “and” joins values, the source holds several entries; their conditions need not be identical. Equal entries are not always repeated.

What was measured:
[1] = test system: carrageenan induced rat paw oedema; assay: rat carrageenan-induced foot paw oedema model; assay type: in vivo; conditions: for Mean % increase in paw weight ± SEM / % Inhibition of paw oedema from control group: 2 h after carrageenan; for Mean % increase in paw weight ± SEM: control group 165.6 ± 1.6; for % Inhibition of paw oedema from control group: single dose screen (Table 1)
Procedure: Anti-inflammatory assessment of the newly synthesised compounds was carried out using an in vivo rat carrageenan-induced foot paw oedema model, as reported previously[16]^,[17].

59 cancer cell lines = assay: full NCI 59 cell line panel assay, single dose; assay type: cell-based; conditions: one dose 10.0 μM, 59 cell lines
[2] = test system: NCI-H522 (NSC Lung Cancer); assay: NCI 59 cell line panel, single dose; assay type: cell-based; conditions: NCI-H522, one dose 10.0 μM
UO-31 (Renal Cancer) = assay: NCI 59 cell line panel, single dose; assay type: cell-based; conditions: UO-31, one dose 10.0 μM
HOP-92 (NSC Lung Cancer) = assay: NCI 59 cell line panel, single dose; assay type: cell-based; conditions: HOP-92, one dose 10.0 μM
[3] = test system: NCI-H322M (NSC Lung Cancer); assay: NCI 59 cell line panel, single dose; assay type: cell-based; conditions: one dose 10.0 μM
PC-3 (Prostate Cancer) = assay: NCI 59 cell line panel, single dose; assay type: cell-based; conditions: PC-3, one dose 10.0 μM
COX-1 = target: T1, COX-1 (Ovis aries, UniProt P05979); assay: colorimetric COX (ovine) inhibitor screening assay kit; assay type: biochemical; conditions: ovine COX-1, mean of two determinations
T1 construct: purchased Cayman Chemicals Inc., Ann Arbour, MI
T1 sequence (P05979 25-600): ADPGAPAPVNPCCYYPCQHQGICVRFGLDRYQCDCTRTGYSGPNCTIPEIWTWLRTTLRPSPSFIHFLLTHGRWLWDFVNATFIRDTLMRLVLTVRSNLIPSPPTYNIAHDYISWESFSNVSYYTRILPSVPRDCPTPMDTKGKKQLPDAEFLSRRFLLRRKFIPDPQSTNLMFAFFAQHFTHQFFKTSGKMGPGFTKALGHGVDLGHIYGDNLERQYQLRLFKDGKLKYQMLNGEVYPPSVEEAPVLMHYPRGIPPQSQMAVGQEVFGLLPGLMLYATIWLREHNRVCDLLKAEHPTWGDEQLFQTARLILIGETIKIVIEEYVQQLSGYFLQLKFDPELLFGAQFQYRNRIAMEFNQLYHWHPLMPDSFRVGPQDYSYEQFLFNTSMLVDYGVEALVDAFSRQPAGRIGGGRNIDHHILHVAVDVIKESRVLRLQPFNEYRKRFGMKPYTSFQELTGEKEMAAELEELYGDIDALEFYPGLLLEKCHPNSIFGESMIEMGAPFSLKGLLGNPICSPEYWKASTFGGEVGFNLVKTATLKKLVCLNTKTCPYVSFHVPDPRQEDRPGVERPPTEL
Description: (§1) To determine the relative ability of the test compounds and reference drugs to inhibit COX-1/COX-2 isozymes, we used the colorimetric COX (ovine) inhibitor screening assay kit (Cayman Chemicals Inc., Ann Arbour, MI), according to the manufacturer’s instructions[3]^,[10]^,[11]^,[20].

COX-2 = target: T2, COX-2 (Ovis aries, UniProt P79208); assay: as above; assay type: biochemical; conditions: for SI, selectivity index (COX-1 IC50/COX-2 IC50): ovine COX-1/COX-2; for IC50: ovine COX-2, mean of two determinations
T2 construct: purchased Cayman Chemicals Inc., Ann Arbour, MI
T2 sequence (P79208 17-603): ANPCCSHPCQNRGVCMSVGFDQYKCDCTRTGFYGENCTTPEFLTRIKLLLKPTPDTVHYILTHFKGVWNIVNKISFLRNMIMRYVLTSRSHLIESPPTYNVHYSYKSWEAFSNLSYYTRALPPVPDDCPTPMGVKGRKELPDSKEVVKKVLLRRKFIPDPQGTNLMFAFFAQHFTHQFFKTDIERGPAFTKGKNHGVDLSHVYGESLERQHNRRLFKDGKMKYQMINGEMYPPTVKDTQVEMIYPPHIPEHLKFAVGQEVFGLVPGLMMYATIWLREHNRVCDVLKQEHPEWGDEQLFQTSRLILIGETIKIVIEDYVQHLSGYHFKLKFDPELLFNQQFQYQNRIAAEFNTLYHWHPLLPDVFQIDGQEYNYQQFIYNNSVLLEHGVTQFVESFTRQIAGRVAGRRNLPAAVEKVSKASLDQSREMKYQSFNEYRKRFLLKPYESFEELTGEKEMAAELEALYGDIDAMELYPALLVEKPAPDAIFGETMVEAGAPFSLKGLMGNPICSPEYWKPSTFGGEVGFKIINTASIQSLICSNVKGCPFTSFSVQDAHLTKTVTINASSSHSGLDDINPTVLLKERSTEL
Description: as §1

mice = assay: Ulcerogenicity measurement; assay type: in vivo
Procedure: Ulcerogenicity was evaluated according to a previously reported method[6]^a,[17]^,[18]. The number and total length of the ulcers for each animal were measured and their averages were calculated and used as the ulcer indices.

HL-60(TB) (Leukaemia) = assay: NCI 59 cell line panel, single dose; assay type: cell-based; conditions: one dose 10.0 μM
TK-10 (Renal Cancer) = assay: NCI 59 cell line panel, single dose; assay type: cell-based; conditions: TK-10, one dose 10.0 μM

SMILES | Mean % increase in paw weight ± SEM [1] | % Inhibition of paw oedema from control group [1] | PCE (positive cytotoxic effect: cell lines with growth inhibition >10% / total number of cell lines) (59 cancer cell lines) | GI% [2] | IC50 (COX-1) | SI, selectivity index (COX-1 IC50/COX-2 IC50) (COX-2) | IC50 (COX-2) | also measured
Cc1ccc2c(c1)C(=O)N(c1cccc(S(N)(=O)=O)c1)C2=O [Compound 5, 3-(5-Methyl-1,3-dioxoisoindolin-2-yl)benzenesulfonamide] | 78.1 ± 0.7% | 57.7% and 57.7 ± 0.5% | 5/59 | 11% | > 50 µM | >55.6 | 900 nM | GI% (UO-31 (Renal Cancer)): 17%; GI% (HOP-92 (NSC Lung Cancer)): 11%; GI% [3]: 11%; GI% (PC-3 (Prostate Cancer)): 11%; melting point: 225 to 226 °C
NS(=O)(=O)c1cccc(N2C(=O)c3ccccc3C2=O)c1 [Compound 4] | 41.0 ± 0.2% | 77.8% and 77.8 ± 0.6% | 3/59 | 16.0% | > 50 µM | >277.8 | 180 nM | Percentage inhibition of paw oedema from control group ([1]; dose 45 mg/kg): 65.0%; Percentage inhibition of paw oedema from control group ([1]; dose 65 mg/kg): 77.8%; Percentage inhibition of paw oedema from control group ([1]; dose 80 mg/kg): 86.2%; ED50 ([1]; from three graded doses (45, 65, 80 mg/kg)): 45.3 mg/kg; Average number of ulcers (mice; mice): 6; Mean sum of lengths of elongated ulcer (mice; mice, ± SEM): 4.7 ± 0.54 mm; level of ulcerogenic activity (in words) (mice; relative to diclofenac and celecoxib): ulcerogenic level similar to celecoxib and less than that of diclofenac; GI% (HL-60(TB) (Leukaemia)): 18%; GI% (TK-10 (Renal Cancer)): 11%
